Source: PMC12117711, “The contribution of cyclic imide stereoisomers on cereblon-dependent activity†” (Chemical Science, 2025)
“And” between values parts separate entries of the source, which are not always exact repeats. Equal values may be shown once. Read-outs that look alike come from different tables or passages of the source. Non-standard residues stand in square brackets, D forms with d. Residues, ends and D or L forms follow the SMILES beside them. No end group written: not given here. *: point of attachment. epicN = C-terminal cyclic asparagine (aspartimide), (R)-epimer, epimer of cN, O=C1C[C@@H](N*)C(=O)N1; Aspartimide = O=C1C[C@H](N*)C(=O)N1; Fmoc = O=C(OCC1c2ccccc2-c2ccccc21)*; X3 = O=C1CC[C@@H](N*)C(=O)N1; X1 = O=C1C[C@@H](N*)C(=O)N1; X2 = O=C1CC[C@H](N*)C(=O)N1

Assays:
His6-CRBN/DDB1 = His6-CRBN/DDB1 (Homo sapiens, UniProt Q96SW2); assay: TR-FRET ligand displacement assay (Thal-FITC tracer) with His6-CRBN/DDB1; conditions: for pIC50 (M) / IC50: Thalidomide-FITC tracer 50 nM
[1] = biological target: T1, GSPT1-GFP in HEK293T cells (Homo sapiens, UniProt P15170+Q96SW2); assay: Degradation assay by flow cytometry, GSPT1-GFP; type: cell-based
T1 construct: expressed in transfected cells
Source text: μg/mL), and 10% (v/v) FBS. […]
Degradation assay by flow cytometry
resuspension in DMEM +/– without phenol red. For IKZF1 degradation assay, propidium
equipped with a high throughput sampler.
using the BD FACSDiva software v9.1. For each experimental condition, the arithmetic mean
comparing compound treatment to DMSO control. […]
The same analysis was also applied to the (S)-
dependent activity, we adjusted the dose-response curves accordingly. Because dose-
within the error margins of the original curve.
squares F-test. This analysis determined whether there was a statistically significant
derived (S)-enantiomer. […]

[2] = Time-course study of racemization of lenalidomide, photo-lenalidomide and deuterated analogs in RPMI medium; type: physicochemical; conditions: RPMI media, 37 °C, read-out: t50%ee (racemization half-life) (converted)
Method: Time-course Study of Racemization of Lenalidomide and Photo-lenalidomide in RPMI Medium To a 12-well plate, 25 μL of the indicated compound (4 mM stock solution in methanol) was added and methanol was air-dried. 1 mL of RPMI medium was added to each well containing the compound and the plate was incubated at 37 °C, 5% CO2. At the indicated time point, RPMI medium containing the compound was collected in a 5-mL Eppendorf tube, and 4 mL of HPLC-grade ethyl acetate was added to each tube. The tube was shaken for 2 min to extract the compounds into ethyl acetate. After two layers were separated, 3 mL was taken from the organic layer and filtered through sodium sulfate to remove residual water. To the same 5-mL Eppendorf tube, 3 mL of HPLC-grade ethyl acetate was added to repeat the extraction step.
The taken organic layers were combined and concentrated in vacuo to dryness. The sample was resuspended in HPLC grade isopropanol and analyzed with Waters Prep 150 LC System equipped with a chiral column with conditions indicated in the synthetic procedure.
The experimental data obtained were fitted to the following rate equation for racemization:1 […]
Where Y represents the ratio of the other enantiomer formed via racemization with constraints 2 of Top = 1 (100% conversion) and Bottom = 0 (0% conversion), Krac is the rate constant for the racemization, and t is incubation time. For the sake of symmetry, rate constants are the […]
In the analysis of the above curve fitting model, parameter estimation for Krac was carried out using nonlinear least squares regression, employing the “curve_fit” function from the SciPy library in Python. This approach yielded an estimated value for Krac. To ascertain the precision of this estimation and to quantify the associated uncertainty, the standard error of Krac was calculated based on the diagonal elements of the covariance matrix returned by the curve fitting procedure. Subsequently, to construct a 95% confidence interval for the extrapolated racemization curves, the t-distribution was employed, considering the degrees of freedom (the number of data points minus the number of fitted parameters). The critical t-value for a 95% confidence level was determined by using the “t.ppf” function from the SciPy library in Python, and the confidence interval for Krac was then derived as the following equation: […]
Where tcritical is the critical t-value for a 95% confidence level and SE(Krac) is the standard error […]
The upper and lower bounds of this interval were further utilized to generate the corresponding confidence bounds for the curve, offering a visual representation of the uncertainty inherent in […]

His6-CRBN/DDB1 complex [3] = biological target: His6-CRBN/DDB1 complex (UniProt Q96SW2)
His6-CRBN/DDB1 complex [4] = biological target: T2, His6-CRBN/DDB1 complex (UniProt Q96SW2 1-442; Q16531 1-1140); assay: AlphaScreen or HTRF; competitive TR-FRET ligand displacement; peptide titrated against recombinant His6-CRBN/DDB1 (2.5 nM) with the tracer Thalidomide-FITC (50 nM); KD from IC50 by the correction factor 1.426 (tracer KD 2-site 117.3 nM); conditions: both partners purified
T2 construct: cereblon (CRBN), E3 ligase substrate adapter; DDB1, in complex with His6-CRBN; Column 'Protein' of S0003 says only 'CRBN'; the text and legends name His6-CRBN/DDB1 for this TR-FRET assay; also called cereblon; source: recombinant

[5] = KD, competitive TR-FRET, His6-CRBN/DDB1
[6] = HEK293T, 3 h, flow cytometry, read-out: DC50
[7] = KD (M), Protein CRBN, from IC50 with Correction Factor 1.43
[8] = IC50 (M), Protein CRBN, protein […]
[9] = IC50 (nM), Protein CRBN, protein […]
[10] = KD (nM), Protein CRBN, from IC50 with Correction Factor 1.43
[11] = Protein CRBN, from IC50 with Correction Factor 1.43

Cc1ccc(NC(=O)NCc2ccc3c(c2)CN(C2CCC(=O)NC2=O)C3=O)cc1Cl (racemic) [rac-CC885, CC885, reference compound]
Kd (His6-CRBN/DDB1; [5]): ≤ 4e-09 M

[2H]C1([2H])CC([2H])(N2Cc3cc(CNC(=O)Nc4ccc(C)c(Cl)c4)ccc3C2=O)C(=O)NC1=O (racemic) [rac-CC885-d3]
DC50 [1, 6]: ≤ 2 nM | Kd (His6-CRBN/DDB1; [5]): ≤ 4e-09 M

Cc1ccc(NC(=O)NCc2ccc3c(c2)CN(C2CCC(=O)NC2=O)C3=O)cc1Cl (racemic) [rac-CC-885]
pIC50 (M) (His6-CRBN/DDB1; Protein CRBN): 8.29 M

[2H]C1([2H])CC([2H])(N2Cc3c(N)cccc3C2=O)C(=O)NC1=O (racemic) [rac-Len-d3]
half-life at 100 µM [2]: 24 to 25 h

[2H]C1([2H])C[C@@]([2H])(N2Cc3cc(CNC(=O)Nc4ccc(C)c(Cl)c4)ccc3C2=O)C(=O)NC1=O [(R)-CC885-d3]
DC50 [1, 6]: 25 nM | Kd (His6-CRBN/DDB1; [5]): 4.01e-07 M

Nc1cccc2c1CN([C@@H]1CCC(=O)NC1=O)C2=O [(R)-lenalidomide]
half-life at 100 µM [2]: 4.3 h

[2H]C1([2H])C[C@]([2H])(N2Cc3cc(CNC(=O)Nc4ccc(C)c(Cl)c4)ccc3C2=O)C(=O)NC1=O [(S)-CC885-d3]
DC50 ([1]; (S) in the (S)-sample, read-out: predicted DC50 of the (S)-stereoisomer, adjusted for (S)-stereoisomer): 1.2 ± 0.3 nM | DC50 [1, 6]: ≤ 2 nM | Kd (His6-CRBN/DDB1; [5]): ≤ 3e-09 M | Kd (His6-CRBN/DDB1; predicted KD of the (S)-stereoisomer, ligand displacement assay adjusted for (S)-stereoisomer, (S)-stereoisomer in the (S)-sample, corrected for racemization): 3.2e-09 ± 1e-10 M

Nc1cccc2c1CN([C@H]1CCC(=O)NC1=O)C2=O [(S)-lenalidomide]
half-life at 100 µM [2]: 4.2 h

O=C(CNC(=O)CNC(=O)OCC1c2ccccc2-c2ccccc21)NCC(=O)N[C@@H](Cc1ccccc1)C(=O)N[C@H]1CC(=O)NC1=O [Fmoc-GGGFcN] (Fmoc-GGGF-Aspartimide)
Kd (His6-CRBN/DDB1; [7]): 3.67e-08 M

O=C(CNC(=O)CNC(=O)OCC1c2ccccc2-c2ccccc21)NCC(=O)N[C@@H](Cc1ccccc1)C(=O)N[C@H]1CCC(=O)NC1=O [Fmoc-GGGFcQ] (Fmoc-GGGF-X2)
IC50 (His6-CRBN/DDB1; [8]): 1.28e-07 M | Kd (His6-CRBN/DDB1; [7]): 8.94e-08 M

O=C(CNC(=O)CNC(=O)OCC1c2ccccc2-c2ccccc21)NCC(=O)N[C@@H](Cc1ccccc1)C(=O)N[C@@H]1CC(=O)NC1=O [Fmoc-GGGFepicN] (Fmoc-GGGF-X1)
IC50 (His6-CRBN/DDB1; [9]): 4.08e-06 M | Kd (His6-CRBN/DDB1; [7]): 2.86e-06 M | Kd (His6-CRBN/DDB1; [5]): 2.86e-06 M and 2.87e-06 M | IC50 (His6-CRBN/DDB1; pIC50 (M), Protein CRBN): 4.07e-06 M | Kd (His6-CRBN/DDB1; pKD (M), Protein CRBN, from IC50 with Correction Factor 1.43): 2.88e-06 M

O=C(CNC(=O)CNC(=O)OCC1c2ccccc2-c2ccccc21)NCC(=O)N[C@@H](Cc1ccccc1)C(=O)N[C@@H]1CCC(=O)NC1=O [Fmoc-GGGFepicQ] (Fmoc-GGGF-X3)
IC50 (His6-CRBN/DDB1; [8]): 7.69e-07 M | Kd (His6-CRBN/DDB1; [7]): 5.39e-07 M

C[C@H](NC(=O)CNC(=O)CNC(=O)CN)C(=O)N[C@H]1CC(=O)NC1=O [GGGAcN] (H-GGGA-Aspartimide)
IC50 (His6-CRBN/DDB1; [8]): 3.44e-07 M | Kd (His6-CRBN/DDB1; [7]): 2.42e-07 M | Kd (His6-CRBN/DDB1; [10]): 2.42e-07 M

C[C@H](NC(=O)CNC(=O)CNC(=O)CN)C(=O)N[C@@H]1CC(=O)NC1=O [GGGAepicN] (H-GGGA-X1)
IC50 (His6-CRBN/DDB1; [8]): 1.12e-05 M

Cc1sc2c(c1C)C(c1ccc(Cl)cc1)=N[C@@H](CC(=O)NCCCCCCCCC(=O)N[C@@H](Cc1ccccc1)C(=O)N[C@H]1CC(=O)NC1=O)c1nnc(C)n1-2 [JQ1-FcN]
pIC50 (M) (His6-CRBN/DDB1; Protein CRBN): 7.42 M | IC50 (His6-CRBN/DDB1; Protein CRBN, protein […]): 3.8e-08 M | Kd (His6-CRBN/DDB1; [11]): 2.66e-08 M and 2.7e-08 M | pKD (M) (His6-CRBN/DDB1; [11]): 7.57 M

Cc1sc2c(c1C)C(c1ccc(Cl)cc1)=N[C@@H](CC(=O)NCCCCCCCCC(=O)N[C@@H](Cc1ccccc1)C(=O)N[C@H]1CCC(=O)NC1=O)c1nnc(C)n1-2 [JQ1-FcQ]
pIC50 (M) (His6-CRBN/DDB1; Protein CRBN): 6.86 M | IC50 (His6-CRBN/DDB1; Protein CRBN, protein […]): 1.38e-07 M | Kd (His6-CRBN/DDB1; [11]): 9.65e-08 M and 9.7e-08 M | pKD (M) (His6-CRBN/DDB1; [11]): 7.02 M

CN1C(=O)CCC(N2Cc3c(N)cccc3C2=O)C1=O (stereo not drawn) [Me-Len, reference compound]
IC50 (His6-CRBN/DDB1; [8]): 1.53e-05 M | IC50 (His6-CRBN/DDB1; [9]): 1.53e-05 M | Kd (His6-CRBN/DDB1; [7]): 1.07e-05 M | Kd (His6-CRBN/DDB1; [10]): 1.07e-05 M | Kd (His6-CRBN/DDB1; [5]): 1.07e-05 M

Nc1cccc2c1CN(C1CCC(=O)NC1=O)C2=O (stereo not drawn) [lenalidomide]
half-life at 100 µM [2]: 4.2 to 4.3 h

GFP-FcN
in vitro monoubiquitination with K0-ubiquitin mediated by the CRL4^CRBN complex, fold over methylated GFP-FcQ (GFP-FcQMe) (His6-CRBN/DDB1 complex [3]): 7.1 fold

GFP-FcQ
in vitro monoubiquitination with K0-ubiquitin mediated by the CRL4^CRBN complex, fold over methylated GFP-FcQ (GFP-FcQMe) (His6-CRBN/DDB1 complex [3]): 4.8 fold

GFP-FepicN
in vitro monoubiquitination with K0-ubiquitin mediated by the CRL4^CRBN complex, fold over methylated GFP-FcQ (GFP-FcQMe); did not reach statistical significance (His6-CRBN/DDB1 complex [3]): 1.3 fold

GFP-FepicQ
in vitro monoubiquitination with K0-ubiquitin mediated by the CRL4^CRBN complex, fold over methylated GFP-FcQ (GFP-FcQMe) (His6-CRBN/DDB1 complex [3]): 2.4 fold

B1: Fmoc-GGGFcN (peptide)
peptide: Fmoc-GGGF[Aspartimide]
SMILES: O=C(CNC(=O)CNC(=O)OCC1c2ccccc2-c2ccccc21)NCC(=O)N[C@@H](Cc1ccccc1)C(=O)N[C@H]1CC(=O)NC1=O
notes: pentapeptide; the C-terminal N is cyclised to the C-terminal cyclic imide (aspartimide); source: synthetic peptide
IC50 (His6-CRBN/DDB1 complex [4]): 52.4 nM

B2: GGGAcN (peptide)
peptide: GGGA[Aspartimide]
notes: pentapeptide; the C-terminal N is cyclised to the C-terminal cyclic imide (aspartimide); The sheet prints no Fmoc for this peptide; also called pentapeptide bearing AcN; source: synthetic peptide
Kd (His6-CRBN/DDB1 complex [4]): 242 nM

B3: GGGAepicN (peptide)
peptide: GGGA[epicN]
notes: pentapeptide; the C-terminal N is cyclised to the aspartimide and is the epimer of that in GGGAcN; The sheet prints no Fmoc for this peptide; also called pentapeptide bearing AepicN; source: synthetic peptide
Kd (His6-CRBN/DDB1 complex [4]): 7850 nM
